Test system: PCP-induced prepulse inhibition (PPI) disorder
Assay: Disorder of PCP-induced prepulse inhibition (PPI) in a rat
Assay type: in vivo
Details: dose 10 mg/kg, PCP 1 mg/kg s.c., % PPI
Procedure: An Improvement Effect for a Disorder of PCP-Induced Prepulse Inhibition (PPI) in a Rat
A startle amplitude occurs in humans to which an sound stimulus has been given, but in healthy human, this startle amplitude is inhibited by the giving of a weak sound stimulus that precedes the sound stimulus. For a patient with schizophrenia, the inhibitory function similarly declined. It is known that when a rat is administered with PCP (phencyclidine), there is a symptom similar to the negative symptom of schizophrenia in humans. Using this model, the improvement effect of the compound (I) for the information processing disorder included in cognitive impairment of schizophrenia was evaluated.
Species: Male Wistar rat/number of the animals (number of animals per group): 12 animals per group
Startle amplitude measuring device for small animals: an SR-LAB ABS system (manufactured by San Diego Instruments)
An animal holder, to which a Plexiglas-made cylinder for animal storage having a diameter of 8.2 cm was attached, was positioned in the upper part of a Plexiglas-made frame in a measurement box. In the measurement box, a sound-insulating treatment and ventilation (FAN) were carried out. Sound was administered by a speaker attached to the 24 cm upper part of the cylinder. The movement of the animals in the cylinder was detected by a transducer attached in the lower part of the frame and recorded by a microcomputer via an interface.
The experiment was initiated after the animals were put into the chamber for measurement and had spent 10 minutes adapting to the measurement environment. Basically, at 35 minutes after the compound to be tested was orally administered, 1 mg/kg of PCP was subcutaneously administered (1 ml/kg). Five minutes later, the rats were put into a chamber for measurement, allowed to adapt for 10 minutes, and the measurement was then initiated. A white noise of 65 dB (for all frequencies, a disordered noise having a constant energy per unit band) used as a background noise was always played through the break periods and the sessions. The three types of trials as shown below were carried out in a random order 10 times for each type with 30 times in total. Each trial was carried out at a pseudo-random interval of 20 to 60 seconds with an average of 40 seconds. A pulse was defined as a white noise of 120 dB, 20 msec, and a prepulse was defined as a white noise of 70, 80 dB, 20 msec.
The startle amplitude of the animal was measured for 100 msec from the initiation of the pulse, and the maximum value was taken as a “maximum startle amplitude (Vmax))”. The “maximum startle amplitude” for the ten times for each of the three types of trials were averaged, and taken as a “startle amplitude (simply referred to as SA)” under the stimulation condition.
The % prepulse inhibition (% PPI) was calculated in the following equation in the PP80 & P trial of 3) above.
% Prepulse inhibition (% PPI)=(Startle amplitude at P-alone trial (SA)−Startle amplitude (SA) at a PP80 & P trial)/Startle amplitude at P alone trial×100
The measured value was expressed as an average value (mean±SE). First, the startle amplitudes (SA) were statistically analyzed. […] For the measured data of % PPI, the normal group and the control group (the group administered with PCP) were compared by a Student t-test, and for the control group and the group administered with the compound to be tested were compared using a Dunnett evaluation. […] The effect of the compound to be tested was assessed with % PPI.

OCCOCCN1CCN(C2=Nc3ccccc3Sc3ccccc32)CC1 [quetiapine, reference compound]
improvement of the PCP-induced PPI: significantly improved

— patent publication US20100324017A1, “ACYLGUANIDINE DERIVATIVE” (priority 2007, published 2010)
